Measured values: US20120172359A1 (NOVARTIS AG, priority 2010, published 2012)
Structures can show the parent of a compound that is named as a salt.

biological target: Human BACE-1 (Homo sapiens, UniProt P56817); experiment: Test 1: Inhibition of Human BACE-1; assay type: biochemical; conditions: Test 1; recombinant BACE-1 (extracellular domain), acetate buffer pH 4.5, 1 hour with test compound at room temperature, fluorescence-quenched peptide substrate; read-out: Bace IC50
Sequence (P56817 46-457 limits assumed): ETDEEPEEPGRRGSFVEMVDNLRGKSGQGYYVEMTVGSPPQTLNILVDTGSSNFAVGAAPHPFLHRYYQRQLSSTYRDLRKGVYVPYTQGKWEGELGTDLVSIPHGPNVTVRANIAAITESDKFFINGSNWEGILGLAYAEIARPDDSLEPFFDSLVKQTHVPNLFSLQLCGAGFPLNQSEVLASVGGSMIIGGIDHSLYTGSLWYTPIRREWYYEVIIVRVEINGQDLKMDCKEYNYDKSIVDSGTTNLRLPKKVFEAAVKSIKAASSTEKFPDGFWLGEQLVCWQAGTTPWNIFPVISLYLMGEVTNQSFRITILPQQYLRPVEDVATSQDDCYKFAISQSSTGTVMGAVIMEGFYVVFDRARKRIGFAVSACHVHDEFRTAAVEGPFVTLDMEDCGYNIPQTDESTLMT

Question: How did the IC50 turn out when `N#Cc1ccc(C(=O)Nc2cc(C3(C(F)F)COCC(N)=N3)c(F)cc2F)nc1` (stereo not shown) [Example 82, 5-Cyano-pyridine-2-carboxylic acid [5-(5-amino-3-difluoromethyl-3,6-dihydro-2H-[1,4]oxazin-3-yl)-2,4-difluoro-phenyl]-amide hydrochloride] was run?
Answer: The IC50 was 3000 nM.

Question: How did the IC50 turn out when `COc1cc(Br)cnc1C(=O)Nc1cc(C2(C(F)F)COCC(N)=N2)c(F)cc1F` (stereo not shown) [Example 83, 5-Bromo-3-methoxy-pyridine-2-carboxylic acid [5-(5-amino-3-difluoromethyl-3,6-dihydro-2H-[1,4]oxazin-3-yl)-2,4-difluoro-phenyl]-amide hydrochloride] was run?
Answer: Its IC50 is 2900 nM.

Question: With `NC1=NC(c2cc(NC(=O)c3ncc(Br)cc3O)c(F)cc2F)(C(F)F)COC1` (stereo not shown) [Example 84, 5-Bromo-3-hydroxy-pyridine-2-carboxylic acid [5-(5-amino-3-difluoromethyl-3,6-dihydro-2H-[1,4]oxazin-3-yl)-2,4-difluoro-phenyl]-amide hydrochloride] as the compound, how does the IC50 read?
Answer: Its IC50 is 930 nM.

Question: With `NC1=N[C@](CF)(c2cc(NC(=O)c3ccc(Cl)cn3)ccc2F)COC1` [Example 85, 5-Chloro-pyridine-2-carboxylic acid [3-((R)-5-amino-3-fluoromethyl-3,6-dihydro-2H-[1,4]oxazin-3-yl)-4-fluoro-phenyl]-amide hydrochloride] as the compound, how does the IC50 read?
Answer: Its IC50 is 26 nM.

Question: With `NC1=NC(CF)(c2cc(NC(=O)c3ccc(Br)cn3)ccc2F)COC1` (stereo not shown) [Example 86, 5-Bromo-pyridine-2-carboxylic acid [3-(5-amino-3-fluoromethyl-3,6-dihydro-2H-[1,4]oxazin-3-yl)-4-fluoro-phenyl]-amide hydrochloride] as the compound, how does the IC50 read?
Answer: The IC50 was 44 nM.

Question: With `NC1=NC(CF)(c2cc(NC(=O)c3ccc(Cl)cn3)ccc2F)COC1` (stereo not shown) [Example 87, 5-Chloro-pyridine-2-carboxylic acid [3-(5-amino-3-fluoromethyl-3,6-dihydro-2H-[1,4]oxazin-3-yl)-4-fluoro-phenyl]-amide hydrochloride] as the compound, how does the IC50 read?
Answer: Its IC50 is 57 nM.

Question: `NC1=NC(CF)(c2cc(NC(=O)c3ncc(Cl)cc3Cl)ccc2F)COC1` (stereo not shown) [Example 88, 3,5-Dichloro-pyridine-2-carboxylic acid [3-(5-amino-3-fluoromethyl-3,6-dihydro-2H-[1,4]oxazin-3-yl)-4-fluoro-phenyl]-amide hydrochloride] was tested. Which IC50 did it give?
Answer: Its IC50 is 33 nM.

Question: With `N#Cc1ccc(C(=O)Nc2ccc(F)c(C3(CF)COCC(N)=N3)c2)nc1` (stereo not shown) [Example 89, 5-Cyano-pyridine-2-carboxylic acid [3-(5-amino-3-fluoromethyl-3,6-dihydro-2H-[1,4]oxazin-3-yl)-4-fluoro-phenyl]-amide hydrochloride] as the compound, how does the IC50 read?
Answer: The IC50 was 94 nM.

Question: How did the IC50 turn out when `Cc1cc(Br)cnc1C(=O)Nc1ccc(F)c(C2(CF)COCC(N)=N2)c1` (stereo not shown) [Example 90, 5-Bromo-3-methyl-pyridine-2-carboxylic acid [3-(5-amino-3-fluoromethyl-3,6-dihydro-2H-[1,4]oxazin-3-yl)-4-fluoro-phenyl]-amide hydrochloride] was run?
Answer: Its IC50 is 39 nM.

Question: For `Cc1cc(Br)cnc1C(=O)Nc1ccc(F)c([C@]2(CF)COCC(N)=N2)c1` [Example 91, 5-Bromo-3-methyl-pyridine-2-carboxylic acid [3-((R)-5-amino-3-fluoromethyl-3,6-dihydro-2H-[1,4]oxazin-3-yl)-4-fluoro-phenyl]-amide hydrochloride], which IC50 is on record?
Answer: Its IC50 is 15 nM.

Question: With `Cc1cc(Cl)cnc1C(=O)Nc1ccc(F)c([C@]2(CF)COCC(N)=N2)c1` [Example 92, 5-Chloro-3-methyl-pyridine-2-carboxylic acid [3-((R)-5-amino-3-fluoromethyl-3,6-dihydro-2H-[1,4]oxazin-3-yl)-4-fluoro-phenyl]-amide] as the compound, how does the IC50 read?
Answer: Its IC50 is 5 nM.

Question: For `Cl.[2H]c1nc(C(=O)Nc2ccc(F)c([C@]3(CF)COCC(N)=N3)c2)c(C([2H])([2H])[2H])c([2H])c1Cl` [Example 93, 5-Chloro-4,6-dideutero-3-trideuteromethyl-pyridine-2-carboxylic acid [3-((R)-5-amino-3-fluoromethyl-3,6-dihydro-2H-[1,4]oxazin-3-yl)-4-fluoro-phenyl]-amide hydrochloride], which IC50 is on record?
Answer: The IC50 was 8 nM.

Question: With `NC1=N[C@](CF)(c2cc(NC(=O)c3ncc(Br)cc3O)ccc2F)COC1` [Example 94, 5-Bromo-3-hydroxy-pyridine-2-carboxylic acid [3-((R)-5-amino-3-fluoromethyl-3,6-dihydro-2H-[1,4]oxazin-3-yl)-4-fluoro-phenyl]-amide hydrochloride] as the compound, how does the IC50 read?
Answer: Its IC50 is 22 nM.

Question: For `COc1cc(Br)cnc1C(=O)Nc1ccc(F)c([C@]2(CF)COCC(N)=N2)c1` [Example 95, 5-Bromo-3-methoxy-pyridine-2-carboxylic acid [3-((R)-5-amino-3-fluoromethyl-3,6-dihydro-2H-[1,4]oxazin-3-yl)-4-fluoro-phenyl]-amide], which IC50 is on record?
Answer: Its IC50 is 390 nM.

Question: `NC1=N[C@@](c2cc(NC(=O)c3ccc(Br)cn3)ccc2F)(C(F)F)CCOC1` [Example 97, 5-Bromo-pyridine-2-carboxylic acid[3-((S)-3-amino-5-difluoromethyl-2,5,6,7-tetrahydro-[1,4]oxazepin-5-yl)-4-fluoro-phenyl]-amide hydrochloride] was tested. Which IC50 did it give?
Answer: The IC50 was 18 nM.

Question: With `N#Cc1ccc(C(=O)Nc2ccc(F)c(C3(C(F)(F)F)CCOCC(N)=N3)c2)nc1` (stereo not shown) [Example 98, 5-Cyano-pyridine-2-carboxylic acid [3-(3-amino-5-trifluoromethyl-2,5,6,7-tetrahydro-[1,4]oxazepin-5-yl)-4-fluoro-phenyl]-amide hydrochloride] as the compound, how does the IC50 read?
Answer: Its IC50 is 240 nM.

Question: For `CC1(c2cc(NC(=O)c3ccc(Br)cn3)ccc2F)N=C(N)COCC1(F)F` (stereo not shown) [Example 101, 5-Bromo-pyridine-2-carboxylic acid [3-(3-amino-6,6-difluoro-5-methyl-2,5,6,7-tetrahydro-[1,4]oxazepin-5-yl)-4-fluoro-phenyl]-amide], which IC50 is on record?
Answer: The IC50 was 30 nM.

Question: `NC1=NC(c2cccc(NC(=O)c3cc(Br)co3)c2)(C(F)F)COC1` (stereo not shown) [Example 102, 4-Bromo-furan-2-carboxylic acid [3-(5-amino-3-difluoromethyl-3,6-dihydro-2H-[1,4]oxazin-3-yl)-phenyl]-amide hydrochloride] was tested. Which IC50 did it give?
Answer: Its IC50 is 890 nM.

Question: `NC1=NC(c2cccc(NC(=O)c3ccc(O)nn3)c2)(C(F)F)COC1` (stereo not shown) [Example 103, 6-Hydroxy-pyridazine-3-carboxylic acid [3-(5-amino-3-difluoromethyl-3,6-dihydro-2H-[1,4]oxazin-3-yl)-phenyl]-amide hydrochloride] was tested. Which IC50 did it give?
Answer: The IC50 was 7800 nM.

Question: With `CCc1nc(C(=O)Nc2cccc(C3(C(F)F)COCC(N)=N3)c2)co1` (stereo not shown) [Example 105, 2-Ethyl-oxazole-4-carboxylic acid [3-(5-amino-3-difluoromethyl-3,6-dihydro-2H-[1,4]oxazin-3-yl)-phenyl]-amide hydrochloride] as the compound, how does the IC50 read?
Answer: The IC50 was 5200 nM.

Question: Which IC50 does the source give for `Cc1nc(C(=O)Nc2cccc(C3(C(F)F)COCC(N)=N3)c2)c(C)o1` (stereo not shown) [Example 106, 2,5-Dimethyl-oxazole-4-carboxylic acid [3-(5-amino-3-difluoromethyl-3,6-dihydro-2H-[1,4]oxazin-3-yl)-phenyl]-amide hydrochloride] here?
Answer: Its IC50 is 4000 nM.

Question: How did the IC50 turn out when `COc1cc(Br)cnc1C(=O)Nc1cccc(C2(C(F)F)COCC(N)=N2)c1` (stereo not shown) [Example 107, 5-Bromo-3-methoxy-pyridine-2-carboxylic acid [3-(5-amino-3-difluoromethyl-3,6-dihydro-2H-[1,4]oxazin-3-yl)-phenyl]-amide hydrochloride] was run?
Answer: The IC50 was 820 nM.
